Results taken from patent US12060347B2 (BRISTOL-MYERS SQUIBB COMPANY, priority 2016, dated 2024).

biological target: T1, human PAR4 (Homo sapiens, UniProt Q96RI0); assay: PAR4 FLIPR assay: antagonism of agonist-peptide-induced calcium mobilization in PAR4-expressing HEK293 cells; format: cell-based; settings: H-Ala-Phe(4-F)-[…]NH2-induced intracellular calcium mobilization, 11-point curves
T1 construct: expressed in transfected cells; host or cells: HEK293 PAR4 Clone 1.2A (BMS Arctic ID 383940)
T1 sequence (Q96RI0 18-385): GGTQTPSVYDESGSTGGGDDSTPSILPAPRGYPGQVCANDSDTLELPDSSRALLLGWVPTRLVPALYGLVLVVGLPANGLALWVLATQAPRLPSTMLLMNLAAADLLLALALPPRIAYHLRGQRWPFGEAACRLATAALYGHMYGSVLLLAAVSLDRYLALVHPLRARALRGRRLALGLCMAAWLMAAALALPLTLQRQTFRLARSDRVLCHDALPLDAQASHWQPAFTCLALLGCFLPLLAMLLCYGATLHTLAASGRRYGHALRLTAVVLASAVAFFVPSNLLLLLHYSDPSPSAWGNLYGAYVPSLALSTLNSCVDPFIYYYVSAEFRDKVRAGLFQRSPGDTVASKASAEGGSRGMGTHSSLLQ

IC50 [nM] | SMILES
2.6 | C[C@H](Oc1cc2sc(-c3cc(Cl)cc4cc(OC(F)F)cnc34)nc2cc1F)[C@@H](C)OC(=O)Nc1cnc(OCCO)nc1 [Example 515, (2R,3S)-3-((2-(6-chloro-3-(difluoromethoxy)quinolin-8-yl)-5-fluorobenzo[d]thiazol-6-yl)oxy)butan-2-yl (2-(2-hydroxyethoxy)pyrimidin-5-yl)carbamate]
1.5 | Cc1cc(-c2nc3c(C)cc(OCCNS(=O)(=O)c4ccc(F)cc4)cc3s2)c2ncc(OC(F)F)nc2c1 [Example 81, N-(2-(2-(2-(difluoromethoxy)-7-methylquinoxalin-5-yl)-4-methylbenzo[d]thiazol-6-yloxy)ethyl)-4-fluorobenzenesulfonamide]
160 | COCc1cnc2c(-c3nc4c(C)cc(OCCNS(=O)(=O)c5ccc(F)cc5)cc4s3)cc(C(=O)N3CCCCC3)cc2n1 [Example 227, 4-fluoro-N-(2-((2-(2-(methoxymethyl)-7-(piperidine-1-carbonyl)quinoxalin-5-yl)-4-methylbenzo[d]thiazol-6-yl)oxy)ethyl)benzenesulfonamide]
3 | COc1cccc2nc(-c3cc(C)cc4nc(OC(F)F)cnc34)sc12 [Example 58, 2-(2-(difluoromethoxy)-7-methylquinoxalin-5-yl)-7-methoxybenzo[d]thiazole]
1.2 | COc1cnc2c(-c3nc4cc(F)c(OC[C@@H](C)OC(=O)Nc5cnc(OCC(C)(C)O)nc5)cc4s3)cc(C)cc2n1 [Example 576, (R)-1-((5-fluoro-2-(2-methoxy-7-methylquinoxalin-5-yl)benzo[d]thiazol-6-yl)oxy)propan-2-yl (2-(2-hydroxy-2-methylpropoxy)pyrimidin-5-yl)carbamate]
2.4 | COc1cnc2c(-c3nc4cc(F)c(O[C@@H](C)[C@@H](C)OC(=O)Nc5ccc(N6CCOC6=O)nc5)cc4s3)cc(C)cc2n1 [Example 600, (2R,3S)-3-((5-fluoro-2-(2-methoxy-7-methylquinoxalin-5-yl)benzo[d]thiazol-6-yl)oxy)butan-2-yl (6-(2-oxooxazolidin-3-yl)pyridin-3-yl)carbamate]
0.9 | COCc1cnc2c(-c3nc4c(C)c(F)c(OCCOC(=O)Nc5ccc(F)nc5)cc4s3)cc(C)cc2n1 [Example 303, 2-((5-fluoro-2-(2-(methoxymethyl)-7-methylquinoxalin-5-yl)-4-methylbenzo[d]thiazol-6-yl)oxy)ethyl (6-fluoropyridin-3-yl) carbamate]
11 | COc1cnc2c(-c3nc4cc(F)c(O[C@@H](C)[C@@H](C)OC(=O)Nc5cnc(C)nc5)cc4s3)cc(CO)cc2c1 [Example 773]
2.6 | COc1cnc2c(-c3nc4cc(F)c(O[C@@H](C)[C@@H](C)OC(=O)Nc5cnc(OCCO)nc5)nc4s3)cc(C)cc2n1 [Example 721, (2R,3S)-3-((6-fluoro-2-(2-methoxy-7-methylquinoxalin-5-yl)thiazolo[5,4-b]pyridin-5-yl)oxy)butan-2-yl (2-(2-hydroxyethoxy)pyrimidin-5-yl)carbamate]
13 | Cc1cc(-c2nc3cccc(OCCOc4ccccc4)c3s2)c2ncc(OC(F)F)nc2c1 [Example 17, 2-(2-(difluoromethoxy)-7-methylquinoxalin-5-yl)-7-(2-phenoxyethoxy)benzo[d]thiazole]
6.2 | Cc1cc(-c2nc3cc(F)c(O[C@@H](C)[C@@H](C)OC(=O)Nc4cnc(C)nc4)cc3s2)c2ncc(OCC(F)F)nc2c1 [Example 827, (2R,3S)-3-((2-(2-(2,2-difluoroethoxy)-7-methylquinoxalin-5-yl)-5-fluorobenzo[d]thiazol-6-yl)oxy)butan-2-yl (2-methylpyrimidin-5-yl)carbamate]
32 | COc1cnc2c(-c3nc4cc(F)c(O[C@@H](C)[C@@H](C)OC(=O)Nc5ccc(C)nn5)cc4s3)cc(C)cc2n1 [Example 416, (2R,3S)-3-((5-fluoro-2-(2-methoxy-7-methylquinoxalin-5-yl)benzo[d]thiazol-6-yl)oxy)butan-2-yl (6-methylpyridazin-3-yl)carbamate]
